Data: patent US20040022667A1 (priority 2001, published 2004)

Experiments:
[1] = 20° C.; cited from earlier work
anthrax spores = format: cell-based, Bacillus anthracis; details: ~50 ppm (approx. 50 mg/liter) pure ClO2 in water

| Compound | solubility per liter of water [1] | time to substantially destroy anthrax spores (anthrax spores) |
| --- | --- | --- |
| O=O [oxygen] | 9.2 mg | – |
| Chlorine dioxide | – | less than 1 min |
